For 16 compounds, IC50 results are on record in patent publication US20250215029A1 (Recludix Pharma, Inc., priority 2022, published 2025).

The target in experiment [1] is T1, Recombinant STAT3 protein (STAT3 (G127-I722)) (Homo sapiens, UniProt P40763).
T1 construct: Recombinant STAT3 protein (STAT3 (G127-I722))
Description: STAT3 Fluorescence Polarization (FP) Assay. Format: binding. Conditions: STAT3 (G127-I722) 25 nM, probe 5-FAM-GpYLPQTV-NH2 2 nM, 45-minute incubation; read-out: STAT3 (FP assay IC50 class). In outline: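 In this competition FP format, STAT3 residues G127-I722 (25 nM) and 2 nM 5-FAM-GpYLPQTV-NH2 met test compounds for 45 min at room temperature. IC50 values result from fitting mP signal against log concentration by nonlinear regression.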
(In general: Fluorescence polarisation rises when a labelled molecule tumbles more slowly, as on binding a larger partner.)

For experiment [2], the target named is T2, Recombinant STAT6 protein (STAT6 (W123-T658)) (Homo sapiens, UniProt P42226).
T2 construct: Recombinant STAT6 protein (STAT6 (W123-T658))
T2 sequence (P42226 123-658): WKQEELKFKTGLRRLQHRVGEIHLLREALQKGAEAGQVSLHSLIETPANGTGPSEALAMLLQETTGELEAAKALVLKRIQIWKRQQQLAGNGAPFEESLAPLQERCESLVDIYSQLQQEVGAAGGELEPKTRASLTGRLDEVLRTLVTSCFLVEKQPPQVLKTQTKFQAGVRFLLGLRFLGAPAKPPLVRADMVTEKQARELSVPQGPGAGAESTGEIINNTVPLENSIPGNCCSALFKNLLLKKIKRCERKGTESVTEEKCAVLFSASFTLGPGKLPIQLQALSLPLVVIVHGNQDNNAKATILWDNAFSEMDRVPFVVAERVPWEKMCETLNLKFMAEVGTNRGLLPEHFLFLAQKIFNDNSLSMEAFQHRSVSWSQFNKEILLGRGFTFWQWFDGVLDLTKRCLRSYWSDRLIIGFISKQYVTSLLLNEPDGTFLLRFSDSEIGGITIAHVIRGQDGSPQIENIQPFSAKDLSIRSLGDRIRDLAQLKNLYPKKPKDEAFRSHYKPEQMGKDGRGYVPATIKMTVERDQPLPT
Nature of the experiment: STAT6 Fluorescence Polarization (FP) Assay. Format: binding. Conditions: STAT6 (W123-T658) 250 nM, probe 5-FAM-Ap[…]-NH2 2 nM, 45-minute incubation; read-out: STAT6 (FP assay IC50 class). In outline:
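Protein-probe mix (250 nM STAT6 W123-T658, 2 nM 5-FAM-pTyr peptide) in 10 mM HEPES pH 7.4, 50 mM NaCl, 1 mM EDTA, 0.05% Tween 20, 2 mM DTT; added to compound dilution series, 1% DMSO final; 45 min RT; FP read; IC50 via nonlinear regression.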

T1 sequence (P40763 127-722): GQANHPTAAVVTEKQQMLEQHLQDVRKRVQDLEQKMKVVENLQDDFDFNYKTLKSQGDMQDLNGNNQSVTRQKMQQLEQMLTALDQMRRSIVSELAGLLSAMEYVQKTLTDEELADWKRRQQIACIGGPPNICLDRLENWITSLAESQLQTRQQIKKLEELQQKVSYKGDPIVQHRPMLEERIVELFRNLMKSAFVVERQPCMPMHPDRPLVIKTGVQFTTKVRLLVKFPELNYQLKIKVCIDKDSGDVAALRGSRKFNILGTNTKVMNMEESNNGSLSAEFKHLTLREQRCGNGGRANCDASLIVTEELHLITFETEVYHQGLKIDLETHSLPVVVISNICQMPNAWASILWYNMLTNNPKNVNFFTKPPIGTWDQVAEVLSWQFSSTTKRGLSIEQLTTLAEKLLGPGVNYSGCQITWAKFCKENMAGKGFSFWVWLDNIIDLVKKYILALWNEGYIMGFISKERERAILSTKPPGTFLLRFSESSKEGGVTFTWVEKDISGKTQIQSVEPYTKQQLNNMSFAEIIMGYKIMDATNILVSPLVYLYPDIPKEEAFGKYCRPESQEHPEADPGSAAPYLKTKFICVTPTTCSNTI

Regarding `O=C(N[C@H]1CCC[C@H]2CC[C@@H](C(=O)N3CC(c4cnccc4N4CCOCC4)C3)N2C1=O)c1cc2cc(CP(=O)(O)O)ccc2s1` [Compound 750, ((2-(((3S,6S,9aS)-3-(3-(4-morpholinopyridin-3-yl)azetidine-1-carbonyl)-5-oxooctahydro-1H-pyrrolo[1,2-a]azepin-6-yl)carbamoyl)benzo [b]thiophen-5-yl)methyl) phosphonic acid], the IC50 in experiment [1] is less than 0.1 µM; in experiment [2] it was 3 to 30 µM.

Take `Cn1ncc(F)c1C1CN(C(=O)[C@@H]2CC[C@@H]3CCC[C@H](NC(=O)c4cc5cc(C(F)P(=O)(O)O)ccc5s4)C(=O)N32)C1` (stereo partly drawn) [Compound 751, (fluoro(2-(((3S,6S,9aS)-3-(3-(4-fluoro-1-methyl-1H-pyrazol-5-yl)azetidine-1-carbonyl)-5-oxooctahydro-1H-pyrrolo[1,2-a]azepin-6-yl)carbamoyl)benzo [b]thiophen-5-yl)methyl) phosphonic acid]: the figures for the IC50 in experiment [1] and in experiment [2] were 0.1 to 1 µM and 3 to 30 µM, respectively.

`Cn1cc(F)c(C2CN(C(=O)[C@@H]3CC[C@@H]4CCC[C@H](NC(=O)c5cc6cc(C(F)P(=O)(O)O)ccc6s5)C(=O)N43)C2)n1` (stereo partly drawn) [Compound 754, (fluoro(2-(((3S,6S,9aS)-3-(3-(4-fluoro-1-methyl-1H-pyrazol-3-yl)azetidine-1-carbonyl)-5-oxooctahydro-1H-pyrrolo[1,2-a]azepin-6-yl)carbamoyl)benzo [b]thiophen-5-yl)methyl) phosphonic acid]: the half-maximal inhibitory concentration (IC50) in experiment [1] lay within 1 to 10 µM; in experiment [2] it was 3 to 30 µM.

In the case of `O=C(N[C@H]1CCC[C@H]2CC[C@@H](C(=O)N3CC(c4cscc4F)C3)N2C1=O)c1cc2cc(C(F)P(=O)(O)O)ccc2s1` (stereo partly drawn) [Compound 757, (fluoro(2-(((3S,6S,9aS)-3-(3-(4-fluorothiophen-3-yl)azetidine-1-carbonyl)-5-oxooctahydro-1H-pyrrolo[1,2-a]azepin-6-yl)carbamoyl)benzo [b]thiophen-5-yl)methyl) phosphonic acid], the values for the IC50 in experiment [1] and in experiment [2] were 0.1 to 1 µM and 3 to 30 µM, respectively.

In the case of `CC1C[C@H]2CC[C@@H](C(=O)N3CC(c4cccnc4)C3)N2C(=O)[C@@H](NC(=O)c2cc3cc(C(F)(F)P(=O)(O)O)ccc3s2)C1` (stereo partly drawn) [Compound 759, (difluoro(2-(((3S,6S,9aR)-8-methyl-5-oxo-3-(3-(pyridin-3-yl)azetidine-1-carbonyl)octahydro-1H-pyrrolo[1,2-a]azepin-6-yl)carbamoyl)benzo [b]thiophen-5-yl)methyl) phosphonic acid], the IC50 in experiment [1] is more than 10 µM; in experiment [2], 0.3 to 3 µM.

With `O=C(N[C@H]1CCC[C@H]2CC[C@@H](C(=O)N3CCC(c4cc[nH]n4)CC3)N2C1=O)c1cc2cc(C(F)P(=O)(O)O)ccc2s1` (stereo partly drawn) [Compound 760, ((2-(((3S,6S,9aS)-3-(4-(1H-pyrazol-3-yl)piperidine-1-carbonyl)-5-oxooctahydro-1H-pyrrolo[1,2-a]azepin-6-yl)carbamoyl)benzo [b]thiophen-5-yl)fluoromethyl) phosphonic acid], the half-inhibitory concentration (IC50) lay in the range of 1 to 10 µM in experiment [1] and 3 to 30 µM in experiment [2].

With `O=C(N[C@H]1CCCC[C@H]2CC[C@@H](C(=O)N3CC(NCC(F)F)(c4ccccn4)C3)N2C1=O)c1cc2cc(C(F)P(=O)(O)O)ccc2s1` (stereo partly drawn) [Compound 761, ((2-(((3S,6S,10aS)-3-(3-((2,2-difluoroethyl)amino)-3-(pyridin-2-yl)azetidine-1-carbonyl)-5-oxodecahydropyrrolo[1,2-a]azocin-6-yl)carbamoyl)benzo [b]thiophen-5-yl)fluoromethyl) phosphonic acid], the IC50 was less than 0.1 µM in experiment [1] and 3 to 30 µM in experiment [2].

For `O=C(N[C@H]1CCC[C@H]2CC[C@@H](C(=O)N3CC(c4cnccc4F)C3)N2C1=O)c1cc2cc(C(F)(F)P(=O)(O)O)ccc2s1` [Compound 762, (difluoro(2-(((3S,6S,9aS)-3-(3-(4-fluoropyridin-3-yl)azetidine-1-carbonyl)-5-oxooctahydro-1H-pyrrolo[1,2-a]azepin-6-yl)carbamoyl)benzo [b]thiophen-5-yl)methyl) phosphonic acid], the IC50 in experiment [1] was less than 0.1 µM; in experiment [2] it was 0.3 to 3 µM.

As for `CN1CCN(C(=O)[C@@H]2CC[C@@H]3CCC[C@H](NC(=O)c4cc5cc(C(F)P(=O)(O)O)ccc5s4)C(=O)N32)c2ccccc21` (stereo partly drawn) [Compound 763, (fluoro(2-(((3S,6S,9aS)-3-(4-methyl-1,2,3,4-tetrahydro-quinoxaline-1-carbonyl)-5-oxooctahydro-1H-pyrrolo[1,2-a]azepin-6-yl)carbamoyl)benzo [b]thiophen-5-yl)methyl) phosphonic acid], the half-maximal inhibitory concentration (IC50) in experiment [1] was 1 to 10 µM; in experiment [2], 3 to 30 µM.

For `COc1ncncc1C1CN(C(=O)[C@@H]2CC[C@@H]3CCC[C@H](NC(=O)c4cc5cc(C(F)P(=O)(O)O)ccc5s4)C(=O)N32)C1` (stereo partly drawn) [Compound 764, (fluoro(2-(((3S,6S,9aS)-3-(3-(4-methoxypyrimidin-5-yl)azetidine-1-carbonyl)-5-oxooctahydro-1H-pyrrolo[1,2-a]azepin-6-yl)carbamoyl)benzo [b]thiophen-5-yl)methyl) phosphonic acid], the figures for the IC50 in experiment [1] and in experiment [2] were 0.1 to 1 µM and 3 to 30 µM, respectively.

Consider `O=C(N[C@H]1CCC[C@H]2CC[C@@H](C(=O)N3CC(c4cnccc4N4CCC4)C3)N2C1=O)c1cc2cc(CP(=O)(O)O)ccc2s1` [Compound 765, ((2-(((3S,6S,9aS)-3-(3-(4-(azetidin-1-yl)pyridin-3-yl)azetidine-1-carbonyl)-5-oxooctahydro-1H-pyrrolo[1,2-a]azepin-6-yl)carbamoyl)benzo [b]thiophen-5-yl)methyl) phosphonic acid], for which the IC50 in experiment [1] was less than 0.1 µM; in experiment [2], 3 to 30 µM.

`COc1ccncc1C1CN(C(=O)[C@@H]2CC[C@@H]3C[C@H](C)C[C@H](NC(=O)c4cc5cc([C@H](F)P(=O)(O)O)ccc5s4)C(=O)N32)C1` [Compound 766, ((R)-fluoro(2-(((3S,6S,8R,9aR)-3-(3-(4-methoxypyridin-3-yl)azetidine-1-carbonyl)-8-methyl-5-oxooctahydro-1H-pyrrolo[1,2-a]azepin-6-yl)carbamoyl)benzo [b]thiophen-5-yl)methyl) phosphonic acid]: the IC50 in experiment [1] is less than 0.1 µM; in experiment [2], 3 to 30 µM.

As for `COC1(c2nccn2C)CN(C(=O)[C@@H]2CC[C@@H]3CCC4(CC4)C[C@H](NC(=O)c4cc5cc(C(F)(F)P(=O)(O)O)ccc5s4)C(=O)N32)C1` [Compound 768, (difluoro(2-(((3′S,6′S,10a′S)-3′-(3-methoxy-3-(1-methyl-1H-imidazol-2-yl)azetidine-1-carbonyl)-5′-oxooctahydro-5′H-spiro[cyclopropane-1,8′-pyrrolo[1,2-a]azocin]-6′-yl)carbamoyl)benzo [b]thiophen-5-yl)methyl) phosphonic acid], the IC50 lay in the range of 0.1 to 1 µM in experiment [1] and 3 to 30 µM in experiment [2].

With `Cc1cc(C2CN(C(=O)[C@@H]3CC[C@@H]4CCC[C@H](NC(=O)c5cc6cc(C(F)P(=O)(O)O)ccc6s5)C(=O)N43)C2)ccn1` (stereo partly drawn) [Compound 769, (fluoro(2-(((3S,6S,9aS)-3-(3-(2-methylpyridin-4-yl)azetidine-1-carbonyl)-5-oxooctahydro-1H-pyrrolo[1,2-a]azepin-6-yl)carbamoyl)benzo [b]thiophen-5-yl)methyl) phosphonic acid], the figures for the IC50 in experiment [1] and in experiment [2] were less than 0.1 µM and 3 to 30 µM, respectively.

Take `CC(=O)N1CCOC2(C1)CN(C(=O)[C@@H]1CC[C@@H]3CCC[C@H](NC(=O)c4cc5cc(C(F)P(=O)(O)O)ccc5s4)C(=O)N31)C2` (stereo partly drawn) [Compound 770, ((2-(((3S,6S,9aS)-3-(8-acetyl-5-oxa-2,8-diazaspiro[3.5]nonane-2-carbonyl)-5-oxooctahydro-1H-pyrrolo[1,2-a]azepin-6-yl)carbamoyl)benzo [b]thiophen-5-yl)fluoromethyl) phosphonic acid]: the values for the concentration for half-maximal inhibition (IC50) in experiment [1] and in experiment [2] were 1 to 10 µM and 3 to 30 µM, respectively.

Regarding `O=C(N[C@H]1CCCCC[C@H]2CC[C@@H](C(=O)N3CC(C(=O)N4CCOCC4)C3)N2C1=O)c1cc2cc(C(F)(F)P(=O)(O)O)ccc2s1` [Compound 773, (difluoro(2-(((3S,6S,11aS)-3-(3-(morpholine-4-carbonyl)azetidine-1-carbonyl)-5-oxodecahydro-1H-pyrrolo[1,2-a]azonin-6-yl)carbamoyl)benzo [b]thiophen-5-yl)methyl) phosphonic acid], the IC50 is 0.1 to 1 µM in experiment [1] and more than 30 µM in experiment [2].

The term IC50 denotes the point on the concentration scale where inhibition reaches its midpoint.
